Experimental data: patent publication US6737383B1, “Herbicidal oxadiazolidines” (priority 1999, dated 2004)

How the values were obtained:
[1] = system: bedstraw; experiment: Test B pre/postemergence bedstraw; format: in vivo, Galium aparine; conditions: Postemergence
Procedure, shortened: (§1)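 Test chemicals in a non-phytotoxic solvent mixture with surfactant were sprayed preemergence onto planted seeds and postemergence onto plants 2 to 18 cm tall (1- to 4-leaf stage). After twelve to sixteen days in a greenhouse, injury was visually rated against untreated controls from 0 (no effect) to 10 (complete control).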

[2] = system: blackgrass; experiment: Test B pre/postemergence blackgrass; format: in vivo, Alopecurus myosuroides
Procedure, shortened: as §1

[3] = system: surinam grass; experiment: Test B pre/postemergence surinam grass; format: in vivo, Brachiaria decumbens
Procedure, shortened: as §1

[4] = system: cocklebur; experiment: Test B pre/postemergence cocklebur; format: in vivo, Xanthium strumarium
Procedure, shortened: as §1

[5] = system: corn; experiment: Test B pre/postemergence corn; format: in vivo, Zea mays
Procedure, shortened: as §1

[6] = system: crabgrass; experiment: Test B pre/postemergence crabgrass; format: in vivo, Digitaria sanguinalis
Procedure, shortened: as §1

[7] = system: giant foxtail; experiment: Test B pre/postemergence giant foxtail; format: in vivo, Setaria faberii
Procedure, shortened: as §1

[8] = system: morningglory; experiment: Test B pre/postemergence morningglory; format: in vivo, Ipomoea hederacea
Procedure, shortened: as §1

[9] = system: pigweed; experiment: Test B pre/postemergence pigweed; format: in vivo, Amaranthus retroflexus
Procedure, shortened: as §1

[10] = system: rape; experiment: Test B pre/postemergence rape; format: in vivo, Brassica napus
Procedure, shortened: as §1

[11] = system: soybean; experiment: Test B pre/postemergence soybean; format: in vivo, Glycine max
Procedure, shortened: as §1

[12] = system: sugar beet; experiment: Test B pre/postemergence sugar beet; format: in vivo, Beta vulgaris
Procedure, shortened: as §1

[13] = system: velvetleaf; experiment: Test B pre/postemergence velvetleaf; format: in vivo, Abutilon theophrasti
Procedure, shortened: as §1

[14] = system: wheat; experiment: Test B pre/postemergence wheat; format: in vivo, Triticum aestivum
Procedure, shortened: as §1

[15] = system: wild oat; experiment: Test B pre/postemergence wild oat; format: in vivo, Avena fatua
Procedure, shortened: as §1

[16] = system: purple nutsedge; experiment: Test B pre/postemergence purple nutsedge; format: in vivo, Cyperus rotundus
Procedure, shortened: as §1

[17] = system: rice; experiment: Test B flood test rice; format: in vivo, Oryza sativa
Procedure, shortened: (§2)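 Each value is a visual injury score relative to controls, with 10 meaning complete control and 0 no effect. Evaluation took place twelve to sixteen days after the 2-leaf-stage plants were treated and kept in the greenhouse.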

[18] = system: smallflower flatsedge; experiment: Test B flood test smallflower flatsedge; format: in vivo, Cyperus difformis
Procedure, shortened: as §2

[19] = system: duck salad; experiment: Test B flood test duck salad; format: in vivo, Heteranthera limosa
Procedure, shortened: as §2

[20] = system: bamyardgrass; experiment: Test B flood test barnyardgrass; format: in vivo, Echinochloa crus-galli
Procedure, shortened: as §2

[21] = Postemergence, Rate 62 g/ha, scale 0 to 10, 0 is no effect, 10 is complete control
[22] = Postemergence, Rate 125 g/ha, scale of 0 to 10 where 0 is no effect and 10 is complete control
[23] = Postemergence, Rate 250 g/ha, scale of 0 to 10, 0 is no effect, 10 is complete control
[24] = Postemergence, Rate 500 g/ha, scale of 0 to 10 where 0 is no effect and 10 is complete control
[25] = Preemergence, Rate 62 g/ha, scale 0 to 10 (0 no effect, 10 complete control)
[26] = Preemergence, Rate 125 g/ha, scale of 0 to 10 where 0 is no effect and 10 is complete control
[27] = Preemergence, Rate 500 g/ha, scale of 0 to 10 where 0 is no effect and 10 is complete control
[28] = Rate 62 g/ha, flood test species, Pre-emergence, visual evaluation after twelve to sixteen days
[29] = Rate 125 g/ha, under heading Pre-emergence, flood test species, visual evaluation after twelve to sixteen days
[30] = Rate 250 g/ha, Pre-emergence (flood test species), scale 0 to 10, 0 is no effect, 10 is complete control
[31] = Rate 500 g/ha, Pre-emergence section of Table B, 0 to 10 scale (0 no effect, 10 complete control)

C=C(Cn1c(=O)on(C(=O)N(c2ccccc2)C(C)C)c1=O)c1ccc(F)cc1 [Compound 606]
4: Plant response rating, Rape [10, 24]
8: Plant response rating, Crabgrass [6, 27]
6: Giant foxtail plant response rating [7, 26] | Plant response rating, Morningglory [8, 21]
10: Plant response rating, Morningglory [8, 22] | Morningglory plant response rating [8, 23]
2: Plant response rating, Redroot pigweed [9, 24] | Plant response rating, Rape [10, 22] | Plant response rating, Soybean [11, 22] | Soybean plant response rating [11, 23]
0: Plant response rating, Bedstraw ([1]; Rate 62 g/ha, scale 0 to 10, 0 is no effect, 10 is complete control) | Bedstraw plant response rating ([1]; Rate 250 g/ha, scale of 0 to 10, 0 is no effect, 10 is complete control) | Plant response rating, Bedstraw ([1]; Rate 500 g/ha, scale of 0 to 10 where 0 is no effect and 10 is complete control) | Plant response rating, Blackgrass [2, 21] | Plant response rating, Blackgrass [2, 22] | Blackgrass plant response rating [2, 23] | Blackgrass plant response rating [2, 25] | Blackgrass plant response rating [2, 26] | Blackgrass plant response rating (0 to 10 scale) ([2]; Preemergence, Rate 250 g/ha) | Plant response rating, B. signalgrass [3, 21] | Plant response rating, B. signalgrass [3, 22] | B. signalgrass plant response rating [3, 23] | Plant response rating, B. signalgrass [3, 24] | B. signalgrass plant response rating [3, 25] | B. signalgrass plant response rating [3, 26] | B. signalgrass plant response rating (0 to 10 scale, 0 is no effect, 10 is complete control) ([3]; Preemergence, Rate 250 g/ha) | B. signalgrass plant response rating [3, 27] | Plant response rating, Cocklebur [4, 21] | Plant response rating, Cocklebur [4, 22] | Cocklebur plant response rating [4, 23] | Plant response rating, Cocklebur [4, 24] | Cocklebur plant response rating [4, 25] | Cocklebur plant response rating [4, 26] | Cocklebur plant response rating (0 to 10 scale) ([4]; Preemergence, Rate 250 g/ha) | Plant response rating, Cocklebur [4, 27] | Plant response rating, Corn [5, 21] | Plant response rating, Corn [5, 22] | Corn plant response rating [5, 23] | Plant response rating, Corn [5, 24] | Corn plant response rating [5, 25] | Corn plant response rating [5, 26] | Corn plant response rating (0 to 10 scale) ([5]; Preemergence, Rate 250 g/ha) | Plant response rating, Corn [5, 27] | Plant response rating, Crabgrass [6, 21] | Crabgrass plant response rating [6, 25] | Plant response rating, Giant foxtail [7, 21] | Plant response rating, Giant foxtail [7, 22] | Giant foxtail plant response rating [7, 23] | Giant foxtail plant response rating [7, 25] | Morningglory plant response rating [8, 25] | Morningglory plant response rating [8, 26] | Plant response rating, Morningglory [8, 27] | Plant response rating, Redroot pigweed [9, 21] | Plant response rating, Redroot pigweed [9, 22] | Redroot pigweed plant response rating [9, 25] | Redroot pigweed plant response rating [9, 26] | Plant response rating, Redroot pigweed [9, 27] | Rape plant response rating [10, 25] | Rape plant response rating [10, 26] | Plant response rating, Rape [10, 27] | Soybean plant response rating [11, 25] | Soybean plant response rating [11, 26] | Plant response rating, Soybean [11, 27] | Plant response rating, Sugarbeets [12, 21] | Plant response rating, Sugarbeets [12, 22] | Sugarbeets plant response rating [12, 23] | Plant response rating, Sugarbeets [12, 24] | Sugarbeets plant response rating [12, 25] | Sugarbeets plant response rating [12, 26] | Plant response rating, Sugarbeets [12, 27] | Plant response rating, Velvetleaf [13, 21] | Plant response rating, Velvetleaf [13, 22] | Velvetleaf plant response rating [13, 23] | Velvetleaf plant response rating [13, 25] | Velvetleaf plant response rating [13, 26] | Plant response rating, Velvetleaf [13, 27] | Plant response rating, Wheat [14, 21] | Plant response rating, Wheat [14, 22] | Wheat plant response rating [14, 23] | Plant response rating, Wheat [14, 24] | Wheat plant response rating [14, 25] | Wheat plant response rating [14, 26] | Plant response rating, Wheat [14, 27] | Plant response rating, Wild oats [15, 21] | Plant response rating, Wild oats [15, 22] | Wild oats plant response rating [15, 23] | Plant response rating, Wild oats [15, 24] | Wild oats plant response rating [15, 25] | Wild oats plant response rating [15, 26] | Plant response rating, Nutsedge [16, 21] | Plant response rating, Nutsedge [16, 22] | Plant response rating, Nutsedge [16, 24] | Nutsedge plant response rating [16, 25] | Nutsedge plant response rating [16, 26] | Plant response rating, Nutsedge [16, 27] | Plant response rating, Rice (0 to 10 scale, 0 is no effect, 10 is complete control) [17, 28] | Rice plant response rating (0 to 10 scale, 0 is no effect, 10 is complete control) [17, 29] | Rice plant response rating [17, 30] | Rice plant response rating [17, 31] | Plant response rating, S. Flatsedge (0 to 10 scale, 0 is no effect, 10 is complete control) [18, 28] | S. Flatsedge plant response rating (0 to 10 scale, 0 is no effect, 10 is complete control) [18, 29] | S. Flatsedge plant response rating [18, 30] | S. Flatsedge plant response rating [18, 31] | Plant response rating, Ducksalad (0 to 10 scale, 0 is no effect, 10 is complete control) [19, 28] | Ducksalad plant response rating (0 to 10 scale, 0 is no effect, 10 is complete control) [19, 29] | Ducksalad plant response rating [19, 30] | Ducksalad plant response rating [19, 31] | Plant response rating, Barnyardgrass (0 to 10 scale, 0 is no effect, 10 is complete control) [20, 28] | Barnyardgrass plant response rating (0 to 10 scale, 0 is no effect, 10 is complete control) [20, 29] | Barnyardgrass plant response rating [20, 30] | Barnyardgrass plant response rating [20, 31]
9: Plant response rating, Giant foxtail [7, 27]
3: Blackgrass plant response rating [2, 27] | Plant response rating, Crabgrass [6, 22] | Crabgrass plant response rating [6, 23] | Plant response rating, Giant foxtail [7, 24] | Rape plant response rating [10, 23] | Plant response rating, Velvetleaf [13, 24] | Plant response rating, Wild oats [15, 27]
1: Plant response rating, Blackgrass [2, 24] | Redroot pigweed plant response rating [9, 23] | Plant response rating, Soybean [11, 21]
